Results: publication PMC9931771, “Surufatinib plus toripalimab in patients with advanced solid tumors: a single-arm, open-label, phase 1 trial” (Journal of Cancer Research and Clinical Oncology, 2022)
Where two headings read alike, the source gives them in different places.

Tests used:
[1] = tested on: advanced well-differentiated extrapancreatic NET; set-up: method as in Xu et al. [2020a], [b]; details: phase 3 trial, ref Xu et al. [2020a], [b]; cited from earlier work
[2] = tested on: tumor-associated macrophages (TAMs); set-up: method as in Zhou et al. [2017]; details: preclinical studies; ref Zhou et al. [2017]; cited from earlier work
[3] = Phase 1 trial: pharmacokinetics of surufatinib and toripalimab (non-compartmental analysis); type: in vivo, human; details: for Surufatinib accumulation ratio of AUC0-τ: Cycle 2 Day 1 compared to Cycle 1 Day 1; for AUC / Cmax / Tmax / Vd/F / half-life: human, in vivo, oral; for AUC: read-out: Surufatinib AUC0-τ, geometric mean (CV%); for Cmax: read-out: Surufatinib Cmax, geometric mean (CV%); for Tmax: read-out: Surufatinib Tmax, median; for Vd/F: read-out: Surufatinib Vd/F, geometric mean (CV%); for half-life: read-out: Surufatinib t1/2, median (converted)
From the text: Blood samples were collected for PK evaluation at multiple time points on Cycle 1 Day 1, Cycle 2 Day 1, and Cycle 3 Day 1 for surufatinib and toripalimab, respectively.
DLT events were based on the DLT evaluable population, including patients who received at least 1 cycle of treatment and completed all safety assessments within the DLT assessment window or discontinued early due to DLT in the dose-escalation stage. All safety analyses, progression-free survival (PFS), and overall survival (OS) statistics were based on the safety population, including patients who received at least 1 dose of any study drug. All efficacy endpoints, excluding PFS and OS, were analyzed based on the efficacy evaluable population, including all patients who received at least 1 dose of any study drug and had tumor assessment at baseline and post drug administration prior to initiation of new anti-cancer therapies. The PK analysis was based on the PK population, which included all patients who received at least one dose of the study drug, had at least one PK sample collected and analyzed, and had no protocol deviation that might affect the PK data.
Two-sided 95% confidence interval (CI) of ORR and DCR were computed using the Exact (Clopper–Pearson) method. For time-to-event variables [PFS, OS, DoR (duration of response) and TTR (time to response)], median event time as well as the corresponding 95% CI were estimated using Kaplan–Meier method. All statistical analyses were performed using SAS 9.4 software. Adverse events (AEs) were graded by NCI CTCAE (Common Terminology Criteria for Adverse Events) v4.03, and coded using the Medical Dictionary for Regulatory Activities (MedDRA) v23.1. Treatment-related AEs (TRAEs) referred to AEs related to surufatinib or toripalimab, which were judged by the investigators. PK parameters were calculated by non-compartmental analysis using Phoenix WinNonlin v8.0.

[4] = tested on: advanced well-differentiated pancreatic NET; set-up: method as in Xu et al. [2020a], [b]; details: phase 3 trial, ref Xu et al. [2020a], [b]; cited from earlier work
[5] = surufatinib 200 mg + toripalimab 240 mg, C1D1, N 6
[6] = surufatinib 200 mg + toripalimab 240 mg, C1D1, footnote 1 (N 4)
[7] = surufatinib 200 mg + toripalimab 240 mg, C2D1, N 6
[8] = surufatinib 200 mg + toripalimab 240 mg, C3D1, N 3
[9] = surufatinib 200 mg + toripalimab 240 mg, C3D1, footnote 3 (N 2)
[10] = surufatinib 250 mg + toripalimab 240 mg, C1D1, N 12
[11] = surufatinib 250 mg + toripalimab 240 mg, C2D1, N 11
[12] = surufatinib 250 mg + toripalimab 240 mg, C3D1, N 9
[13] = surufatinib 250 mg + toripalimab 240 mg, C3D1, footnote 3 (N 8)
[14] = surufatinib 300 mg + toripalimab 240 mg, C1D1, N 12
[15] = surufatinib 300 mg + toripalimab 240 mg, C1D1, footnote 1 (N 10)
[16] = surufatinib 300 mg + toripalimab 240 mg, C2D1, N 10
[17] = surufatinib 300 mg + toripalimab 240 mg, C3D1, N 10

Surufatinib accumulation ratio of AUC0-τ ([3]; 200 mg QD): 1.8 | Surufatinib accumulation ratio of AUC0-τ ([3]; 250 mg QD): 2.0 | Surufatinib accumulation ratio of AUC0-τ ([3]; 300 mg QD): 2.1 | AUC ([3]; surufatinib 200 mg + toripalimab 240 mg, C1D1, N 4): 1840 ng·h/mL | Cmax [3, 5]: 277 ng/mL | Tmax [3, 5]: 1.98 h | Vd/F [3, 6]: 926 L | half-life [3, 6]: 4.49 h | AUC ([3]; surufatinib 200 mg + toripalimab 240 mg, C2D1, N 3): 3010 ng·h/mL | Cmax [3, 7]: 268 ng/mL | Tmax [3, 7]: 2.97 h | half-life ([3]; surufatinib 200 mg + toripalimab 240 mg, C2D1, footnote 4 (N 3)): 13.1 h | AUC ([3]; surufatinib 200 mg + toripalimab 240 mg, C3D1, N 2): 2300 ng·h/mL | Cmax [3, 8]: 239 ng/mL | Tmax [3, 8]: 1.98 h | Vd/F [3, 9]: 1080 L | half-life [3, 9]: 10.1 h | AUC [3, 10]: 1840 ng·h/mL | Cmax [3, 10]: 289 ng/mL | Tmax [3, 10]: 1.6 h | Vd/F [3, 10]: 1660 L | half-life [3, 10]: 11.1 h | AUC [3, 11]: 3610 ng·h/mL | Cmax [3, 11]: 407 ng/mL | Tmax [3, 11]: 2 h | half-life [3, 11]: 11.9 h | AUC ([3]; surufatinib 250 mg + toripalimab 240 mg, C3D1, N 8): 2400 ng·h/mL | Cmax [3, 12]: 310 ng/mL | Tmax [3, 12]: 1.93 h | Vd/F [3, 13]: 2540 L | half-life [3, 13]: 15.6 h | AUC ([3]; surufatinib 300 mg + toripalimab 240 mg, C1D1, N 10): 1880 ng·h/mL | Cmax [3, 14]: 228 ng/mL | Tmax [3, 14]: 2 h | Vd/F [3, 15]: 1620 L | half-life [3, 15]: 8.12 h | AUC ([3]; surufatinib 300 mg + toripalimab 240 mg, C2D1, N 9): 3670 ng·h/mL | Cmax [3, 16]: 281 ng/mL | Tmax [3, 16]: 2.97 h | half-life ([3]; surufatinib 300 mg + toripalimab 240 mg, C2D1, footnote 4 (N 8)): 14.4 h | AUC [3, 17]: 3500 ng·h/mL | Cmax [3, 17]: 361 ng/mL | Tmax [3, 17]: 2 h | Vd/F [3, 17]: 1510 L | half-life [3, 17]: 12.2 h | Surufatinib CL/F, geometric mean (CV%) [3, 6]: 89.5 (23.9) ^1 L/h | Surufatinib CL/F, geometric mean (CV%) [3, 9]: 87.0 (24.3) ^3 L/h | Surufatinib CL/F, geometric mean (CV%) [3, 10]: 110 (34.6) L/h | Surufatinib CL/F, geometric mean (CV%) [3, 13]: 104 (45.0)^3 L/h | Surufatinib CL/F, geometric mean (CV%) [3, 15]: 134 (30.7) ^1 L/h | Surufatinib CL/F, geometric mean (CV%) [3, 17]: 84.3 (34.9) L/h
Compound: Cc1cc2cc(Oc3ccnc(Nc4cccc(CS(=O)(=O)NCCN(C)C)c4)n3)ccc2[nH]1 [surufatinib]
DCR [1]: 86.5% | ORR [1]: 10.3% | Effect on M1 TAMs [2]: increased | Effect on M2 tumor-associated macrophages (TAMs) [2]: decreased | DCR [4]: 80.8% | ORR [4]: 19.2%
